Literature values in patent US9695151B2, “3,4-dihydro-2H-isoquinoline-1-one and 2,3-dihydro-isoindol-1-one compounds” (Hoffmann-La Roche Inc., priority 2013, dated 2017).

Columns and labels:
[1] = test system: rat model of chronic kidney disease; conditions: cited from earlier work
[2] = test system: rats with experimental heart failure; conditions: rat, in vivo; cited from earlier work
[3] = angiotensin II and high salt treatment

N#Cc1ccc([C@H]2CCCc3cncn32)cc1 [FAD286]
cardiac and aortic medial hypertrophy [1, 3]: attenuated | renal effects (albuminuria, azotemia, renovascular hypertrophy, glomerular injury, PAI-1 and osteopontin mRNA, tubulointerstitial fibrosis) [1, 3]: prevented | angiotensin II and salt-stimulated PAI-1 mRNA expression ([1]; aorta and heart): not | plasma aldosterone ([1]; following 4 weeks of treatment): reduced | blood pressure and cardiovascular function and structure [2]: improved | kidney function and morphology [2]: improve
